Experiments:
HSPG receptor = assay: hLF cell membrane localization, confocal microscopy of VeroE6/T cells; type: cell-based, African green monkey; conditions: co-incubation of hLF and heparin
Method: To visualize cell membrane localization of human lactoferrin (hLF), VeroE6/T cells (0.75×10^5 cells/well) were chilled at 4° C. for 1 hr, incubated with 2.5 µM of hLF. Cells were washed, fixed using 4% PFA (Invitrogen), stained with anti-hLF antibody, and fluorescent image was taken under confocal microscope (FIG. 10, middle row). Cell nuclei were visualized using DAPI (FIG. 10, bottom row). To visualize the cell surface and nuclei at the same time, the confocal images above (i.e., FIG. 10, middle and bottom rows) were merged and are presented in FIG. 10, top row. […] To see the effect of heparin on the binding of hLF to the cell surface (specifically the HSPG receptor), cells were co-incubated with hLF and heparin (H), and the confocal image was taken (FIG. 10, right column).

SARS-CoV-2 = conditions: cited from earlier work

heparin [reference compound]
effect on binding of hLF to the cell surface HSPG receptor (HSPG receptor): inhibited

Ivermectin
IC50 (SARS-CoV-2): 2200 to 2800 nM

Source: patent publication US20230331815A1 (priority 2020, published 2023)
